Results from ChEMBL document CHEMBL4270512, “Harnessing pyrrolidine iminosugars into dimeric structures for the rapid discovery of divalent glycosidase inhibitors” (Eur J Med Chem, 2018).
Calls of active or inactive are those of the source. The rule behind the calls is not given here.

What was measured:
[1] = species on record: Bos taurus; experiment: Inhibition of bovine kidney alpha-fucosidase at 0.120 uM using p-nitrophenyl glycopyranoside as substrate preincubated for 5 mins followed by substrate addition and measured after 20 mins by visible absorption spectroscopic analysis
[2] = Competitive inhibition of bovine kidney alpha-fucosidase using p-nitrophenyl glycopyranoside as substrate preincubated for 5 mins followed by substrate addition and measured after 20 mins by Lineweaver-Burk plot analysis; parameters: species or system Bos taurus
[3] = Uncompetitive inhibition of bovine kidney alpha-fucosidase using p-nitrophenyl glycopyranoside as substrate preincubated for 5 mins followed by substrate addition and measured after 20 mins by Lineweaver-Burk plot analysis; parameters: species or system Bos taurus
[4] = biological target: T1, Beta-galactosidase (Bos taurus) (UniProt Q58D55); experiment: Inhibition of bovine liver beta-galactosidase at 200 uM using p-nitrophenyl glycopyranoside as substrate preincubated for 5 mins followed by substrate addition and measured after 20 mins by visible absorption spectroscopic analysis relative to control
T1 sequence (whole entry): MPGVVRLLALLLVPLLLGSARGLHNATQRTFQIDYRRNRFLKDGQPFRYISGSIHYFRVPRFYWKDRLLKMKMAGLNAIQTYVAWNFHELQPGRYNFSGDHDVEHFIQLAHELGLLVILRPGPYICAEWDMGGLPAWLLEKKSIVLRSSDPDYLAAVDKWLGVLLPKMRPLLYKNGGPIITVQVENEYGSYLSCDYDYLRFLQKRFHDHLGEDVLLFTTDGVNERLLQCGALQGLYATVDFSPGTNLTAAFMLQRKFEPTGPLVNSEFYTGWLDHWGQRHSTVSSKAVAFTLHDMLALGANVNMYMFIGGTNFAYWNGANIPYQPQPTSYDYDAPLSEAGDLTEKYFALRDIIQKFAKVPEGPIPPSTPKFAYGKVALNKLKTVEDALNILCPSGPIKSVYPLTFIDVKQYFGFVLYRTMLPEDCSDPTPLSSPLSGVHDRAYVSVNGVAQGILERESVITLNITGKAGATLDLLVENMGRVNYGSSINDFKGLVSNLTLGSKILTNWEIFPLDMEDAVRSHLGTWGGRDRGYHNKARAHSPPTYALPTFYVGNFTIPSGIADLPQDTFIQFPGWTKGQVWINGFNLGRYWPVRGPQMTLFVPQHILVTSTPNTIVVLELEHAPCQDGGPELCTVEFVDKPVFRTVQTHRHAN

[5] = test system: Prunus dulcis; experiment: Inhibition of almond beta-glucosidase at 0.1 mM using p-nitrophenyl glycopyranoside as substrate preincubated for 5 mins followed by substrate addition and measured after 20 mins by visible absorption spectroscopic analysis
[6] = biological target: Alpha-galactosidase (Coffea arabica) (UniProt Q42656); experiment: Inhibition of coffee beans alpha-galactosidase at 0.1 mM using p-nitrophenyl glycopyranoside as substrate preincubated for 5 mins followed by substrate addition and measured after 20 mins by visible absorption spectroscopic analysis
Alpha-galactosidase (Coffea arabica), sequence (Q42656 16-378 limits assumed): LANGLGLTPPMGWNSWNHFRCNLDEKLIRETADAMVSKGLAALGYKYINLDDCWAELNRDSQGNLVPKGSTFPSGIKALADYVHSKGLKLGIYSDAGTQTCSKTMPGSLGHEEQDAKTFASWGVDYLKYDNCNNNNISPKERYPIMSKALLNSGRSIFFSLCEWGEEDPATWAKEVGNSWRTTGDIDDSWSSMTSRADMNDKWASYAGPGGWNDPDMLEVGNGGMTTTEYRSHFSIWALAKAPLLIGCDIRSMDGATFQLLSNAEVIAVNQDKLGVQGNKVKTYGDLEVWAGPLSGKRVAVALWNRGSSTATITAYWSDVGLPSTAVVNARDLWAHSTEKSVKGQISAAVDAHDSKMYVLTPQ

[7] = Uncompetitive inhibition of human alpha-fucosidase using p-nitrophenyl glycopyranoside as substrate preincubated for 5 mins followed by substrate addition and measured after 20 mins by Lineweaver-Burk plot analysis
[8] = biological target: T2, Alpha-mannosidase (Canavalia ensiformis) (UniProt C0HJB3); experiment: Inhibition of jack beans alpha-mannosidase at 0.1 mM using p-nitrophenyl glycopyranoside as substrate preincubated for 5 mins followed by substrate addition and measured after 20 mins by visible absorption spectroscopic analysis
T2 sequence (whole entry): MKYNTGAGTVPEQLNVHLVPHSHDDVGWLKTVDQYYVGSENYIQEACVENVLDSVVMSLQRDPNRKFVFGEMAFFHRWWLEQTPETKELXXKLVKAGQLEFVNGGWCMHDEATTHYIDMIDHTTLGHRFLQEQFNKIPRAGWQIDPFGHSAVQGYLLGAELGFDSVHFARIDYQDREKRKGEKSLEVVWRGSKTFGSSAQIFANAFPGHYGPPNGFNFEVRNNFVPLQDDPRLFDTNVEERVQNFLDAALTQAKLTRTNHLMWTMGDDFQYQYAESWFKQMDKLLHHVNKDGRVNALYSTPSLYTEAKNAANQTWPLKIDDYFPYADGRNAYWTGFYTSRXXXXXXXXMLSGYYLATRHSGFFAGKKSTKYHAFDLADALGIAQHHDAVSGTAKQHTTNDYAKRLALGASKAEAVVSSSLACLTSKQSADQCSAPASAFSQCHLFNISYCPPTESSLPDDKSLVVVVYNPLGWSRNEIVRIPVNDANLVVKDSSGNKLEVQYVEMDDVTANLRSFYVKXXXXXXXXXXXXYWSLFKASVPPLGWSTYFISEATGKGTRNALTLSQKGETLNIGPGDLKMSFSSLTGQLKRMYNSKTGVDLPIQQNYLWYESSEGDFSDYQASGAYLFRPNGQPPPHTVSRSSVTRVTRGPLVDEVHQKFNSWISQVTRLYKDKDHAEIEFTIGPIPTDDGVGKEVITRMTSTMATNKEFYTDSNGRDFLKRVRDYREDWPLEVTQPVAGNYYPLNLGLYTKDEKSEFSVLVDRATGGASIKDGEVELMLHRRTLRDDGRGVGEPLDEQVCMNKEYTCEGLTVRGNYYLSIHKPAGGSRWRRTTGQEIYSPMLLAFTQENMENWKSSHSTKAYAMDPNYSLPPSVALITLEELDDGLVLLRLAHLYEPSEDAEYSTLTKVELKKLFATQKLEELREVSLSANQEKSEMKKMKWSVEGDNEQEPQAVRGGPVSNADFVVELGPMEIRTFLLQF

[9] = test system: Saccharomyces cerevisiae; experiment: Inhibition of Saccharomyces cerevisiae alpha-glucosidase at 0.1 mM using p-nitrophenyl glycopyranoside as substrate preincubated for 5 mins followed by substrate addition and measured after 20 mins by visible absorption spectroscopic analysis
[10] = test system: Aspergillus niger; experiment: Inhibition of Aspergillus niger amyloglucosidase at 0.1 mM using p-nitrophenyl glycopyranoside as substrate preincubated for 5 mins followed by substrate addition and measured after 20 mins by visible absorption spectroscopic analysis
[11] = biological target: T1, Beta-galactosidase (Bos taurus); experiment: Inhibition of bovine liver beta-galactosidase at 0.1 mM using p-nitrophenyl glycopyranoside as substrate preincubated for 5 mins followed by substrate addition and measured after 20 mins by visible absorption spectroscopic analysis
[12] = test system: Oryza sativa; experiment: Inhibition of rice beta-glucosidase at 0.1 mM using p-nitrophenyl glycopyranoside as substrate preincubated for 5 mins followed by substrate addition and measured after 20 mins by visible absorption spectroscopic analysis
[13] = Inhibition of bovine kidney alpha-fucosidase using p-nitrophenyl glycopyranoside as substrate preincubated for 5 mins followed by substrate addition and measured after 20 mins by visible absorption spectroscopic analysis; parameters: species or system Bos taurus
[14] = test system: Cornu aspersum; experiment: Inhibition of snail beta-mannosidase at 0.1 mM using p-nitrophenyl glycopyranoside as substrate preincubated for 5 mins followed by substrate addition and measured after 20 mins by visible absorption spectroscopic analysis
[15] = test system: Canavalia ensiformis; experiment: Inhibition of jack beans beta-N-acetylglucosaminidase at 0.1 mM using p-nitrophenyl glycopyranoside as substrate preincubated for 5 mins followed by substrate addition and measured after 20 mins by visible absorption spectroscopic analysis
[16] = Inhibition of human alpha-fucosidase using p-nitrophenyl glycopyranoside as substrate preincubated for 5 mins followed by substrate addition and measured after 20 mins by visible absorption spectroscopic analysis
[17] = Competitive inhibition of human alpha-fucosidase using p-nitrophenyl glycopyranoside as substrate preincubated for 5 mins followed by substrate addition and measured after 20 mins by Lineweaver-Burk plot analysis
[18] = species on record: Bos taurus; experiment: Inhibition of bovine kidney alpha-fucosidase at 0.1 mM using p-nitrophenyl glycopyranoside as substrate preincubated for 5 mins followed by substrate addition and measured after 20 mins by visible absorption spectroscopic analysis relative to control
[19] = biological target: T3, Beta-galactosidase (Bos taurus, UniProt Q58D55); experiment: Competitive inhibition of bovine liver beta-galactosidase using p-nitrophenyl glycopyranoside as substrate preincubated for 5 mins followed by substrate addition and measured after 20 mins by Lineweaver-Burk plot analysis
T3 sequence (Q58D55 whole entry): T1 sequence (whole entry)

[20] = species on record: Homo sapiens; experiment: Inhibition of human alpha-fucosidase at 0.1 mM using p-nitrophenyl glycopyranoside as substrate preincubated for 5 mins followed by substrate addition and measured after 20 mins by visible absorption spectroscopic analysis
[21] = biological target: T3, Beta-galactosidase; experiment: Inhibition of bovine liver beta-galactosidase using p-nitrophenyl glycopyranoside as substrate preincubated for 5 mins followed by substrate addition and measured after 20 mins by visible absorption spectroscopic analysis

| Structure (SMILES) | Ki [2] | Ki [3] | inhibition [5] | inhibition [6] | Ki [7] | inhibition [8] | inhibition [9] | inhibition [10] | inhibition [11] | inhibition [12] | IC50 [13] | inhibition [14] | inhibition [15] | IC50 [16] | Ki [17] | further results |
| --- | --- | --- | --- | --- | --- | --- | --- | --- | --- | --- | --- | --- | --- | --- | --- | --- |
| C[C@@H]1N[C@@H](c2cn(CCCCCCCCCCCCn3cc([C@@H]4N[C@@H](C)[C@@H](O)[C@H]4O)nn3)nn2)[C@H](O)[C@@H]1O |  |  |  |  |  |  |  |  |  |  |  |  |  |  |  | inhibition [1]: Active |
| C#C[C@H]1[C@H](O)[C@H](O)[C@H](C)N1C(=O)OC(C)(C)C | 0.2 nM | 1 nM |  |  |  |  |  |  |  |  |  |  |  |  |  |  |
| Cc1oc([C@H]2NC[C@@H](O)[C@H]2O)cc1C(=O)NCc1cn(CCOCCOCCOCCn2cc(CNC(=O)c3cc([C@H]4NC[C@@H](O)[C@H]4O)oc3C)nn2)nn1 |  |  |  |  |  |  |  |  |  |  |  |  |  |  |  | inhibition [4]: < 50% |
| Cc1oc([C@H]2NC[C@@H](O)[C@H]2O)cc1C(=O)NCc1cn(CCOCCOCCOCCOCCOCCn2cc(CNC(=O)c3cc([C@H]4NC[C@@H](O)[C@H]4O)oc3C)nn2)nn1 |  |  |  |  |  |  |  |  |  |  |  |  |  |  |  | inhibition [4]: < 50% |
| C[C@@H]1N[C@@H](c2cn(CCOCCOCc3cn(CCCCCCCCCCCCn4cc(COCCOCCn5cc([C@@H]6N[C@@H](C)[C@@H](O)[C@H]6O)nn5)nn4)nn3)nn2)[C@H](O)[C@@H]1O |  |  |  |  |  |  |  |  |  |  |  |  |  |  |  | inhibition [1]: Active |
| C[C@@H]1N[C@@H](c2cn(CCOCCOCc3cn(-c4cccc(S(=O)(=O)c5cccc(-n6cc(COCCOCCn7cc([C@@H]8N[C@@H](C)[C@@H](O)[C@H]8O)nn7)nn6)c5)c4)nn3)nn2)[C@H](O)[C@@H]1O |  |  |  |  |  |  |  |  |  |  |  |  |  |  |  | inhibition [1]: Active |
| C[C@@H]1N[C@@H](c2cn(CCCCCCn3cc([C@@H]4N[C@@H](C)[C@@H](O)[C@H]4O)nn3)nn2)[C@H](O)[C@@H]1O | 15 nM | 240 nM | inactive | inactive | 7.1 µM | inactive | inactive | inactive | inactive | inactive | 47 nM | inactive | inactive | 6.8 µM | 2500 nM |  |
| C[C@@H]1N[C@@H](c2c[nH]nn2)[C@H](O)[C@@H]1O | 300 nM | 4200 nM | inactive | inactive | 34 µM | inactive | inactive | inactive | inactive | inactive | 1000 nM | inactive | inactive | 70 µM | 18000 nM |  |
| C[C@@H]1N[C@@H](c2cn(-c3ccccc3)nn2)[C@H](O)[C@@H]1O | 6.8 nM | 66 nM | inactive | inactive | 5.5 µM | inactive | inactive | inactive | inactive | inactive | 19 nM | inactive | inactive | 4.2 µM | 860 nM |  |
| C[C@@H]1N[C@@H](c2cn(-c3ccc(S(=O)(=O)c4ccc(N=[N+]=[N-])cc4)cc3)nn2)[C@H](O)[C@@H]1O | 0.2 nM | 1 nM | inactive | inactive | 0.58 µM | inactive | inactive | inactive | inactive | inactive | 1.1 nM | inactive | inactive | 0.54 µM | 73 nM |  |

Further lines, with some results ahead:

| Ki [2] | Ki [3] | inhibition [5] | inhibition [6] | Ki [7] | inhibition [8] | inhibition [9] | inhibition [10] | inhibition [11] | inhibition [12] | IC50 [13] | inhibition [14] | inhibition [15] | IC50 [16] | Ki [17] | Structure (SMILES) | further results |
| --- | --- | --- | --- | --- | --- | --- | --- | --- | --- | --- | --- | --- | --- | --- | --- | --- |
| 43 nM | 132 nM | inactive | inactive | 11.1 µM | inactive | inactive | inactive | inactive | inactive | 120 nM | inactive | inactive | 26 µM | 4800 nM | C[C@@H]1N[C@@H](c2cn(CCOCCOCCOCCn3cc([C@@H]4N[C@@H](C)[C@@H](O)[C@H]4O)nn3)nn2)[C@H](O)[C@@H]1O |  |
|  |  | inactive | inactive |  | inactive | inactive | inactive |  | inactive |  | inactive | inactive |  |  | Cc1oc([C@H]2NC[C@@H](O)[C@H]2O)cc1C(=O)NCc1cn(CCCCCCCCCCCCn2cc(CNC(=O)c3cc([C@H]4NC[C@@H](O)[C@H]4O)oc3C)nn2)nn1 | inhibition [18]: 32%; Ki [19]: 5.8 µM; inhibition [4]: 88%; inhibition [20]: inactive; IC50 [21]: 9.6 µM |
